The record followed here is PubChem BioAssay (NCI).

Structures are written as SMILES. Several values for one entry are separate records, joined by “and”; a condition that tells them apart may be missing. Equal entries are not always repeated.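 Results reflect a 48-hour exposure of cells in 96-well plates to compound at five concentrations. GI50: concentration for 50% inhibition of growth. TGI is the concentration that stops growth completely.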

Test systems include DLD-1 colon; DMS 273 small cell lung; KM20L2 colon; LXFL 529 NSCLC; M19-MEL melanoma; RXF-631 renal; XF 498 CNS; HS 578T breast; MDA-N; P388 leukemia.
Common to all, as to assay: NCI tumour cell line growth inhibition, 48 h

As for `O=C(O)CCC(NC(=O)c1ccc(Nc2nc3ccccc3nc2-c2cccs2)cc1)C(=O)O` (stereo unspecified), the TGI in the test with DLD-1 colon, in the test on DMS 273 small cell lung, with KM20L2 colon, in the test on LXFL 529 NSCLC, in the test with M19-MEL melanoma and in the test with RXF-631 renal was more than 100 µM throughout. In the test on XF 498 CNS, the TGI was more than 100 µM.
Regarding `COC(=O)c1ccccc1NC(=O)C(=O)Cc1nc2c3c(ccc2[nH]c1=O)C(=O)c1ccccc1C3=O`, the TGI in the test with DLD-1 colon was more than 100 µM; with DMS 273 small cell lung, 58.1 µM; in the test on KM20L2 colon, more than 100 µM; with LXFL 529 NSCLC, more than 100 µM; in the test with M19-MEL melanoma, 23.9 µM; in the test with RXF-631 renal, more than 100 µM. Besides, in the test with XF 498 CNS, the TGI was 91.7 µM.
`CCN(CC)CCSc1c2ccccc2nc2cc(NCC(=O)Nc3ccccc3-c3ccccc3NC(=O)CNc3ccc4c(SCCN(CC)CC)c5ccccc5nc4c3)ccc12`: the TGI in the test with DLD-1 colon is more than 100 µM; in the test with DMS 273 small cell lung, more than 58.3 µM; with KM20L2 colon, more than 100 µM; in the test on LXFL 529 NSCLC, more than 100 µM; in the test with M19-MEL melanoma, more than 54.7 µM; in the test with RXF-631 renal it was more than 100 µM. Further, the TGI with XF 498 CNS is more than 100 µM.
As for `O=C(CC(=O)c1cccc2ccccc12)C(=O)Nc1ccc(Cl)cc1`, the TGI in the test with DLD-1 colon, with DMS 273 small cell lung, in the test on KM20L2 colon, in the test on LXFL 529 NSCLC, with M19-MEL melanoma and in the test with RXF-631 renal was more than 100 µM throughout. Besides, the TGI in the test with XF 498 CNS was more than 100 µM.
For the molecule `Cc1ccc(S(=O)(=O)OC[C@@H]2CO2)cc1`, the TGI in the test on DLD-1 colon, with DMS 273 small cell lung, with KM20L2 colon, in the test with LXFL 529 NSCLC, in the test with M19-MEL melanoma and with RXF-631 renal was more than 100 µM each time.
Turning to `CC1(C(=O)O)CCC[C@@]2(C)C1CC[C@@]1(C)c3cocc3CCC21` (stereo partly specified), the TGI in the test with DLD-1 colon, with DMS 273 small cell lung, in the test with KM20L2 colon, in the test on LXFL 529 NSCLC, in the test with M19-MEL melanoma and in the test on RXF-631 renal was more than 100 µM in each case. The same molecule came in with a TGI in the test on XF 498 CNS of more than 100 µM.
As for `Nc1ccccc1S(=O)(=O)N(CC(=O)O)c1ccccc1`, the TGI in the test on DLD-1 colon, with DMS 273 small cell lung, in the test on KM20L2 colon, with LXFL 529 NSCLC, with M19-MEL melanoma and in the test with RXF-631 renal was more than 100 µM in each case. In the test on XF 498 CNS, this molecule returned a TGI of more than 100 µM.
`O=C(O)CCNCCCNCCC(=O)O`: the TGI in the test with DLD-1 colon, with DMS 273 small cell lung, in the test with KM20L2 colon, in the test with LXFL 529 NSCLC, in the test with M19-MEL melanoma and with RXF-631 renal was more than 100 µM in each case. In the test with XF 498 CNS, the TGI is more than 100 µM.
Regarding `CNC(=S)OCCC(C)CCCC(C)C` (stereo unspecified), the TGI in the test with DLD-1 colon turned out to be 28.9 µM; in the test with DMS 273 small cell lung, 30.7 µM; in the test on KM20L2 colon, 30 µM; with LXFL 529 NSCLC it was 30.4 µM; with M19-MEL melanoma, 34.9 µM; with XF 498 CNS, 31.1 µM.
In the case of `CCCC1C(=O)CCc2c(OC)ccc(OC)c21` (stereo unspecified), the TGI in the test on DLD-1 colon, in the test with DMS 273 small cell lung, with KM20L2 colon, with LXFL 529 NSCLC, in the test with M19-MEL melanoma and in the test on XF 498 CNS was more than 100 µM in each case.
For the molecule `Cc1cc(N(CCC#N)CCC#N)ccc1N=Nc1ccc(S(N)(=O)=O)cc1`, the TGI in the test with DLD-1 colon, in the test with DMS 273 small cell lung, in the test with LXFL 529 NSCLC, in the test on RXF-631 renal and with XF 498 CNS was more than 100 µM each time.
Turning to `CCOC(=O)C(C)(C)Oc1ccc2c(-c3ccccc3)cc(=O)oc2c1`, the TGI was more than 100 µM in the test with DLD-1 colon; more than 100 µM with DMS 273 small cell lung; more than 100 µM with KM20L2 colon; 94.8 µM with LXFL 529 NSCLC; 98 µM with M19-MEL melanoma; 47.9 µM in the test with XF 498 CNS.
In the case of `O=C(Nc1ccccc1)c1c(O)[nH]c(=S)[nH]c1=O`, the GI50 is 109 µM with DLD-1 colon; 87.2 µM in the test with KM20L2 colon; 67 µM in the test on P388 leukemia; 8.86 µM and 61.7 µM in the test on XF 498 CNS. In addition, the TGI in the test on DLD-1 colon was 90 µM and > 250 µM; with DMS 273 small cell lung, 78.9 µM; with HS 578T breast it was 74.3 µM; in the test with KM20L2 colon, 125 µM and > 250 µM; in the test on M19-MEL melanoma, 118 µM; with MDA-N, 125 µM. Further, the TGI in the test on P388 leukemia was 57.7 µM and > 250 µM; in the test with XF 498 CNS, 19.5 µM and 155 µM.
For the molecule `Cc1cnc(NCCCN(C)C)c2c1[nH]c1ccc3cc(O)ccc3c12`, the TGI with DLD-1 colon was 3.7 µM; in the test with DMS 273 small cell lung, 1.24 µM; with HS 578T breast it was 2.22 µM; in the test with KM20L2 colon, 2.29 µM; in the test with LXFL 529 NSCLC, 1.76 µM; with M19-MEL melanoma, 1.25 µM. Further, the TGI came to 2.21 µM in the test on MDA-N and 0.806 µM in the test with XF 498 CNS.
On to `O=C(CCc1nc(=S)[nH][nH]1)Nc1ccc(Cl)c(Cl)c1`, for which the TGI is more than 100 µM in the test with DLD-1 colon; more than 100 µM with DMS 273 small cell lung; 31.6 µM with KM20L2 colon; more than 100 µM in the test on LXFL 529 NSCLC; more than 100 µM in the test with M19-MEL melanoma; more than 100 µM with RXF-631 renal. This molecule had a TGI in the test with XF 498 CNS of more than 100 µM.
As for `COc1cc2cc(OC)c3cc4c(cc3c2c(OC)c1OC)OCO4`, the TGI with DLD-1 colon is 51.5 µM; with DMS 273 small cell lung it was 35.6 µM; in the test with KM20L2 colon, 53.5 µM; with LXFL 529 NSCLC, more than 100 µM; with M19-MEL melanoma it was 48.8 µM; in the test on RXF-631 renal, more than 100 µM.
